Test results published in patent US11406642B2, “DNP and DNP prodrug treatment of neuromuscular, neurodegenerative, autoimmune, developmental, traumatic brain injury, concussion, dry eye disease, hearing loss and/or metabolic diseases” (priority 2016, dated 2022).
“Also recorded” adds a separate entry of the source.

Columns and labels:
[1] = in rats, general statement; cited from earlier work
dopaminergic neurons = assay: Parkinson model using 6-OHDA; type: in vivo; settings: chronic treatment
Text: In one embodiment, the invention provides compositions and methods for treating neurodegenerative diseases such as Alzheimer's disease, Parkinson, and Huntington's disease. It is believed that the complete lack of historic success is due to most pharmaceutical industries focusing on a downstream event, such as plaques/tangles, whereas the issue is likely upstream at the mitochondria causing high cellular stress.

[2] = Stability in human plasma; type: in vitro ADME; settings: 80% human plasma, 37° C.
Procedure: Plasma: Stability in rat and human plasma (37° C.)
(§1) HPLC analysis was carried out on an Agilent 1200 Infinity Series Quatpump, equipped with a photodiode array detector and a computer integrating apparatus. An Inertsil ODS-3 column, C18, 5 μm, 4.6×50 mm (GL Science Inc. Japan) protected with a guard column: Alltima C18, 5 μm, 4.6×7.5 mm (Grace Discovery Sciences, IL, USA) was used as the stationary phase. An isocratic method with a mobile phase consisting of water/acetonitrile (70:30) containing 0.05% formic acid in each was used. A flow rate of 0.9 mL/min was used and detection was carried out at a UV wavelength of 250 nm.
Formulation of II-38 in human plasma: to prepare 1 mg/mL of II-38, 2.3 mg of II-38 was formulated in DMSO (5%) and added slowly and gradually to a total volume of 2.185 mL of premixed human plasma (80%+PBS 15%, see Table 6) in a Franz cell diffusion chamber preheated to 37° C. The solution was mixed for a min every half an hour using magnetic stirrer. Samples of 20 μL (20 μg/mL of II-38) were collected at 0, 0.5, 1, 2, 4, 6 and 8 h. Each sample was mixed with acetonitrile QS to 1 mL, vortex-mixed for 30 sec and centrifuged at 10,000 rpm at room temp. A volume of 10 μL of the supernatant was injected into the HPLC spectrometer.

[3] = Stability of II-38 in hydrochloric acid buffer, pH 1.2; type: physicochemical; settings: pH 1.2, 37° C., 5% DMSO, within 8 h
Procedure: (§2) pH: Stability in aqueous buffers (37° C., pHs 1.2 and 7.4)
as §1
Hydrochloric acid, pH 1.2 buffer was prepared. II-38 (2.5 mg) was dissolved in 0.125 mL of DMSO (5%). Reactions were initiated by adding II-38 dissolved in DMSO slowly and gradually to a total volume of 2.375 mL of HCl buffer, pH 1.2 (Table 1) in a Franz cell diffusion chamber preheated to 37° C. The solution was mixed for 30 sec every half an hour using magnetic stirrer. Samples of 20 μL (20 μg/mL of II-38) were collected at 0, 1, 2, 4, 6 and 8 h. Each sample was mixed with acetonitrile QS to 1 mL, vortex-mixed for 30 sec and centrifuged at 10,000 rpm at room temp. A volume of 10 μL of the supernatant was injected into the HPLC spectrometer for detection of 2,4-DNP and II-38 in HCl buffer, pH 1.2.

[4] = Stability of II-38 in phosphate buffer, pH 7.4; type: physicochemical; settings: pH 7.4, 37° C., 5% DMSO, within 8 h
Procedure: as §2, §1
Formulation of II-38 in phosphate buffer (PB): to formulate 1 mg/mL of II-38 in PB, 2.6 mg of II-38 was formulated in 0.13 mL of DMSO (i.e. 5%) and added slowly and gradually to a total volume of 2.47 mL of preheated PB (Table 2) in a Franz cell diffusion chamber preheated to 37° C. The solution was mixed for 30 sec every half an hour using magnetic stirrer. Samples of 20 μL (20 ug/mL of II-38) were collected at 0, 0.5, 1, 2, 4, 6 and 8 h. Each sample was mixed with acetonitrile QS to 1 mL, vortex-mixed for 30 sec and centrifuged at 10,000 rpm at room temp. A volume of 10 μL of the supernatant was injected into the HPLC spectrometer.

Row | SMILES | half-life [1] | protection of dopaminergic neurons (dopaminergic neurons) | hydrolysis in human plasma [2] | hydrolysis / stability in HCl buffer [3] | hydrolysis / stability in phosphate buffer [4]
1 | O=[N+]([O-])c1ccc(O)c([N+](=O)[O-])c1 [2,4-DNP, 2,4-dinitrophenol] | ~6 h | positive protective effect |  |  | 
2 | O=C(Oc1ccc([N+](=O)[O-])cc1[N+](=O)[O-])N1CCOCC1 [II-38, 2,4-Dinitrophenyl morpholine-4-carboxylate] |  |  | cleaved in the plasma to produce 2,4-DNP at a slow rate | no significant hydrolysis; also recorded: did not show significant hydrolysis; also recorded: no evidence of 2,4-DNP formation | no significant hydrolysis; also recorded: did not show significant hydrolysis; also recorded: no evidence of 2,4-DNP formation
